Like-named read-outs stand apart in the source and are kept apart here. No end group written: not given here.
Legend:
[1] = system: 5HT2a; conditions: rodents; cited from earlier work
[2] = system: platelets; assay: ADP-mediated platelet activation/aggregation; format: cell-based
[3] = system: THP-1 cells; assay: MCP-1 induced THP-1 cell migration, Transwell assay; format: cell-based, human; conditions: for Max effect (maximum inhibition): Table 2, highest dose tested (1-10 μM); for Maximal inhibition of leukocyte migration: maximal / very high doses, Example 6; for Human chemokine-induced THP-1 migration assay Max effect: Table 3
Protocol: Leukocyte migration was measured using the 96-well format micro Transwell® assay system from Neuroprobe (Gaithersburg, Md., USA). In principle, this assay consists of two chambers separated by a porous membrane. The chemoattractant is placed in the lower compartment and the cells are placed in the upper compartment.
The method was performed essentially as previously described (Reckless & Grainger (1999) Biochem. J. 340:803-11).
First, the cell suspension to be placed in the upper compartment was prepared. The THP-1 cells were pelleted by centrifugation (770×g; 4 mins) and washed with Geys Balanced Salt Solution with 1 mg/ml BSA (GBSS+BSA). This wash was then repeated, and the cells re-pelleted before being resuspended in a small volume of GBSS+BSA for counting, for example using a standard haemocytometer.
The volume of GBSS+BSA was then adjusted depending on the number of cells present so that the cells were at final density of 4.45×10^6 cells per ml of GBSS+BSA. This ensured that there were 100,000 THP-1 cells in each 25 μl of the solution to be placed in the upper chamber of the plate.
The suspension of THP-1 cells at 4.45×10^6 cells/ml was divided into three pots. […] To the second pot, the BSCI was added at the same concentration as in the first pot, but additionally the sstr2 antagonist was also added (for example BIM 23454 [Tulipano et al. (2002) 143:1218-24] or BIM 23627 were added at 66 nM final concentration from a stock solution in GBSS). To the third pot, GBSS+BSA plus vehicle as appropriate was added so that the volumes in three pots are equal, acting as a control.
Next, the chemoattractant solution to be placed in the lower compartment was prepared. MCP-1 was diluted in GBSS+BSA to give a final concentration of 25 ng/ml (after all additions). Note that, as recommended by Frow et al (Med. Res. Rev. 24:276-98) this is the concentration of MCP-1 which induces maximal migration in this system. This solution was divided into three pots, as for the cell suspension. To one pot, the BSCI was added to the same final concentration as was added to the cell suspension, in the second pot the BSCI and the sstr2 antagonist were both added at the same concentration as previously added to the cell suspension, while to the remaining pot GBSS+BSA plus vehicle as appropriate was added so that the volumes in the three pots were equal.
Once the chemoattractant solutions for the lower wells and cell solutions for the upper chambers were prepared, the migration chamber was assembled. 29 μl of the appropriate chemoattractant solution was placed into the lower well of the chamber. Assays were performed with at least triplicate determinations of each condition. Once all the lower chambers were filled, the porous membrane was applied to the chamber in accordance with the manufacturer's instructions. Finally, 25 μl of the appropriate cell solution was applied to each upper chamber. A plastic lid was placed over the entire apparatus to prevent evaporation.
The assembled chamber was incubated at 37° C., 5% CO2, for 2 hours.
At the end of the incubation, the liquid cell suspension was gently removed from the upper chamber, 20 μl of ice-cold 20 mM EDTA in PBS was added to the upper chamber, and the apparatus was incubated at 4° C. for 15 mins. This procedure caused any cells adhering to the underside of the membrane to fall into the lower chamber.
After this incubation the filter was carefully flushed with GBSS+BSA to wash off the EDTA, and then the filter was removed.
The number of cells migrated into the lower chamber under each condition can then be determined by a number of methods, including direct counting, labelling with fluorescent or radioactive markers or through the use of a vital dye. Typically, we utilised the vital dye MTT.

[4] = biological target: T1, sstr2 (Homo sapiens, UniProt P30874); assay: Equilibrium binding of [3H]-BN83250 to THP-1 cells
T1 construct: with 1×10^6 THP-1 cells in Gey's Balanced Salt Solution; endogenous in cells; host or cells: THP-1 cells (whole cells, 4° C.)
Protocol: Methods: [^3H]-BN83250 was synthesesized from (S,E)-3-(2′,2′-dimethyldodec-4′-enoylamino)-caprolactam by catalytic hydrogenation using tritium gas over a palladium catalyst (CRB Ltd, Cleveland, UK), yielding the tritiated product at a concentration of […] in ethanol with a specific activity of 220 Ci/mmol. The (S,E)-3-(2′,2′-dimethyldodec-4′-enoylamino)-caprolactam was prepared as follows: (S,S)-3-amino-caprolactam hydro-pyrrolidine-5-carboxylate (10 mmol) and Na2CO3 (30 mmol) in water (30 ml) were added to a solution of 2,2-dimethyl-dodec-4-enoyl chloride (10 mmol) in dichloromethane (30 ml) at ambient temperature and the reaction was stirred for 12 hours. The organic layer was then separated and the aqueous phase was extracted with additional dichloromethane (2×25 ml). The combined organic layers were dried over Na2CO3 and reduced in vacuo. The residue was purified by silica column chromatography (1:1 EtOAc:hexanes to EtOAc) to give […]-3-(2′,2′-dimethyl-dodec-4′-enoyl)amino-caprolactam as a colourless oil (2.12 g, 63%). The radiolabelled compound was stored in the dark at 4° C. until required. Prior to use the specific activity was adjusted by addition of unlabelled BN83250.
For the analysis of binding, individual reactions were set up (in triplicate for each condition), with 1×10^6 THP-1 cells in Gey's Balanced Salt Solution, 10 nM [^3H]-BN83250 (at 50 Ci/mmol) and various concentrations of (S)-3(2′2′-dimethylpropionoylamino)-tetrahydropyridin-2-one (10 pM to 10 μM). Excess (100 μM) unlabelled BN83250 was used to determine the level of non-specific binding. After 2 hours at 4° C. (conditions previously shown to achieve equilibrium binding, and which prevent uptake of the radioligand that would result in an over-estimate of binding) excess label was washed away by centrifugation (3 washes with 5 ml of Gey's Balanced Salt Solution) and the bound radioactivity was determined by scintillation counting of the solubilised cell pellet.

[5] = system: Jurkat T cells; assay: SDF-1α induced migration of parental Jurkat T cells; format: cell-based, human
Protocol: Results: The level of the SDF-1α, receptor CXCR4 was similar on Jurkat-D3B and the parental Jurkat T cell line. Furthermore, the Jurkat-D3B cells responded to SDF-1α in a Transwell® chemotaxis assay (see Example 1 for the methodology employed) over a similar concentration range to the parental cell line.
Jurkat T cells and Jurkat-D3B cells were induced to migrate in response to 100 ng/ml SDF-1α (R&D systems; the concentration of SDF-1α which induced maximal cell migration in both lines). The BSCI BN83250 was then added at various concentrations between 0 nM and 1000 nM (each in triplicate) to both the upper and lower compartments (at the same concentration in each compartment, so as not to create a gradient of BSCI concentration). DMSO (1% final concentration) was used as the vehicle, and was present in all wells at equal concentration.

[6] = system: Panc-2H4 cells; assay: Human Panc-2H4 insulin suppression assay; format: cell-based; conditions: for Human Panc-2H4 insulin suppression assay Max effect: suppression compared to vehicle
Excerpt: (§1) Two different assays for “classical” sstr2 functions were adopted: (1) cultured foetal rat pituitary cells secreted growth hormone which is inhibited by sstr2 agonists in a dose-dependent fashion and (2) selected glucose-sensitive sub-clones of the human Panc-1 cell line secrete insulin which is inhibited by sstr2 agonists in a dose-dependent fashion.
Glucose-sensitive sub-clones of the human Panc-1, a cell line derived from a pleiomorphic epithelioid carcinoma of the exocrine pancreas, were obtained essentially as described by Hamil et al. (2008) Biomed. Sci. Instrum. 44:441-6. Briefly, Panc-1 cells were subcultured in 24 well plates, and the medium was supplemented with an additional 5% glucose. […] The resulting sub-lines were then tested for glucose sensitivity by preparing wells of a 96-well plate (5×10^4 cells per well) which were then exposed to cultured medium containing a range of glucose concentrations (low glucose DMEM, DMEM, DMEM+1% glucose, DMEM+2.5% glucose and DMEM+5% glucose). After 24 hrs incubation, the conditioned medium was collected and assayed for insulin secretion by ELISA (Linco; cat# EZHI-14K) in accordance with the manufacturer's instructions.
Further 96 well plates were prepared using Panc-2H4 (5×10^4 cells per well) in DMEM. After 24 hrs, the medium was switched to DMEM+5% glucose containing various test agents at various concentrations (triplicate wells per condition). After a further 24 hrs, the conditioned medium was harvested and the concentration of insulin was determined by ELISA as described above.
(§2) Results were reported as the mean±SD, expressed as the fold change from cells in the presence of vehicle only.

[7] = system: fetal rat pituicytes; assay: Rat pituicyte GH suppression assay; format: cell-based; conditions: for EC50 / Rat pituicyte GH suppression assay Max effect: Table 3; for EC50: read-out: Rat pituicyte GH suppression assay ED50; for Rat pituicyte GH suppression assay Max effect: suppression compared to vehicle
Excerpt: as §1
Methods: Cultures of fetal rat pituicytes were established exactly as previously described (Murray et al. (2004) J. Clin. Endocrinol. Metab. 89:3027-32) by enzymatic dispersion. After 48 hrs in low glucose DMEM plus 10% FCS, cells in 48 well plates (5×10^4 cells per well) were washed for 4 hrs in serum-free DMEM and then incubated with test agents at various concentrations for a further 24 hrs in serum-free DMEM. At the end of this period, the conditioned medium was harvested, any cell debris removed by centrifugation and assayed for GH using a commercially available ELISA (Linco; cat# EZRMGH-45K) in accordance with the manufacturer's instructions.
as §2

[8] = system: rat peripheral blood leukocytes; assay: Rat chemokine-induced PBMC migration assay; format: cell-based; conditions: Table 3
[9] = Table 3, read-out: Human Panc-2H4 insulin suppression assay ED50

T1 sequence (P30874 whole entry): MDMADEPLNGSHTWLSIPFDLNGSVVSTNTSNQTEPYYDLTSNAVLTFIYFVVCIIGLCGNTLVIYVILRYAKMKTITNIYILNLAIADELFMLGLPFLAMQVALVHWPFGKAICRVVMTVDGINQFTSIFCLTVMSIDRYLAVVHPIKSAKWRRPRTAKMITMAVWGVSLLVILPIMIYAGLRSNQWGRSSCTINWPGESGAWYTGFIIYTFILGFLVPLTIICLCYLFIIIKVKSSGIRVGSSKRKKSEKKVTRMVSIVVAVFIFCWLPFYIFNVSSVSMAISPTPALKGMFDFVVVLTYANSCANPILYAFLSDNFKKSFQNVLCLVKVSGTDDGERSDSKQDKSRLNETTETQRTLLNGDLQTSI

## COc1cc(CCN)cc(OC)c1OC [mescaline]
[1]
  Head twitching by classical 5HT2a agonists: induce this classical effect

## Clc1cccc(Cl)c1N=C1NCCN1 [clonidine]
[2]
  Effect on ADP-mediated platelet activation/aggregation: significant potentiate ADP-mediated platelet aggregation

## CC(C)C[C@H]1C(=O)N2CCC[C@H]2[C@]2(O)O[C@](NC(=O)[C@@H]3C[C@@H]4c5cccc6[nH]cc(c56)C[C@H]4N(C)C3)(C(C)C)C(=O)N12 [dihydroergocryptine]
[2]
  Effect on ADP-mediated platelet activation/aggregation: significant potentiate ADP-mediated platelet aggregation

## CN(C)CCc1c[nH]c2cccc(O)c12 [psilocin]
[1]
  Head twitching by classical 5HT2a agonists: induce this classical effect

## Sst-28: alternatively processed sst28 natural ligand
[3]
  Max effect (maximum inhibition): 40-60%
  Maximal inhibition of leukocyte migration: 40-60%

## CCN(CC)C(=O)[C@@H]1C=C2c3cccc4[nH]cc(c34)C[C@H]2N(C)C1 [LSD]
[1]
  Head twitching by classical 5HT2a agonists: induce this classical effect

## CC1(C(=O)N[C@H]2CCCCNC2=O)CCCCC1 [(S)-3-(1′-methylcyclohexyl-1′-carbonylamino)-caprolactam]
[4]
  Competition with BN83250 binding to sstr2, in words: compete with BN83250 binding to sstr2 to a similar extent

## C[C@@H](N)Cc1c2ccoc2c(Br)c2ccoc12 [Bromo-DragonFLY]
[1]
  Head twitching by classical 5HT2a agonists: induce this classical effect

## [3H]C(CCCCCCC)C([3H])CC(C)(C)C(=O)N[C@H]1CCCCNC1=O (stereo partly drawn) [[^3H]-BN83250, 4′,5′-^3[H] (S)-3-(2′,2′-dimethyldodecanoyl)amino-caprolactam]
[4]; THP-1 cells
  Binding sites per cell: 100,000 to 200,000 sites per cell
[4]; THP-1 cells, 2 hours at 4° C., read-out: Affinity (Scatchard analysis)
  Kd: ~80 nM

## Cortistatin: more recently described somatostatin analog (DRMPCRNFFWKTFSSCK; ends and bridges not checked; cysteine pairing not given here; UniProt O00230 89-105, looked up)
[3]
  Max effect (maximum inhibition): 40-60%
  Maximal inhibition of leukocyte migration: ~50%

## COC(=O)[C@@H]1[C@H]2C[C@H]3c4[nH]c5ccccc5c4CCN3C[C@@H]2CC[C@@H]1O [yohimbine]
[5]
  Inhibition of SDF-1α induced migration of Jurkat T cells, in words: neither agent inhibits
[2]
  Effect on ADP-mediated platelet activation/aggregation: significant potentiate ADP-mediated platelet aggregation

## O=C1NCCCC[C@@H]1NC(=O)C12CC3CC(CC(C3)C1)C2 [BN83470, (S)-3-(admantane-1′-carbonylamino)-caprolactam]
[6]; [9]
  EC50: > 1000 nM
[6]; Table 3
  Human Panc-2H4 insulin suppression assay Max effect: <10%
[3]
  Human chemokine-induced THP-1 migration assay Max effect: 100%
[7]
  Inhibition of GH release, in words: inhibited GH release only at much higher concentrations
  EC50: 270 nM
  Rat pituicyte GH suppression assay Max effect: 56%
[4]
  Competition with BN83250 binding to sstr2, in words: compete with BN83250 binding to sstr2 to a similar extent
[8]
  Rat chemokine-induced PBMC migration assay Max effect: 100%

## C[C@@H](c1c[nH]c2ccccc12)[C@@H](NC(=O)N1CCC(n2c(=O)[nH]c3ccccc32)CC1)C(=O)NC[C@@H]1CCC[C@H](CN)C1 [L-779,976]
[6]; [9]
  EC50: 17 nM
[6]; Table 3
  Human Panc-2H4 insulin suppression assay Max effect: 40%
[6]; Table 4
  Panc-2H4 insulin suppression assay (“classical” target) Max Effect: 40%
[6]; Table 4, 0.01 nM to 1,000 nM, DMSO 1%, read-out: Panc-2H4 insulin suppression assay (“classical” target) ED50
  EC50: 17 nM
[6]; Table 5
  Panc-2H4 insulin suppression assay (“classical” target) Max Effect: 40%
[6]; Table 5, read-out: Panc-2H4 insulin suppression assay (“classical” target) ED50
  EC50: 17 nM
[3]
  Human chemokine-induced THP-1 migration assay Max effect: 65%
[3]; Table 4
  Chemokine-induced THP-1 cell migration assay (“BSCI” target) Max Effect: 65%
[3]; Table 5
  Chemokine-induced THP-1 cell migration assay (“BSCI” target) Max Effect: 65%
[7]
  EC50: 2.9 nM
  Rat pituicyte GH suppression assay Max effect: 55%
